Source: PMC6112376, “Comprehensive Analyses and Prioritization of Tox21 10K Chemicals Affecting Mitochondrial Function by in-Depth Mechanistic Studies” (Environmental Health Perspectives, 2018)
Where a name gives a salt, the structure may show the parent alone. Read-outs that look alike come from different tables or passages of the source.

Legend:
[1] = system: HepG2 cells; conditions: cited from earlier work
[2] = system: rat primary hepatocytes
[3] = system: rat primary hepatocytes; test: MMP assay in rat primary hepatocytes; conditions: for IC50: Rattus norvegicus, Hepatocyte, read-out: MMP assays IC50 (µM) Rat Hepatocytes
[4] = system: HepG2 cells; test: cells; conditions: Homo sapiens; for IC50: HepG2, read-out: MMP assays IC50 (µM) HepG2; for Emax: HepG2, read-out: MMP assays efficacy (%) HepG2
[5] = read-out: MMP assays IC50 (µM), qHTS-HepG2
[6] = read-out: MMP assays IC50 (µM) qHTS-HepG2

Which “MMP assays efficacy (%) qHTS-HepG2” value [1] does the source give for Cc1cc(C)c(/C=C2\C(=O)Nc3ccccc32)[nH]1 [SU-5416] here?
Its value is -116±2%.

And the IC50 [1, 5]?
The IC50 was 12.5 ± 1.78 µM.

What about the “MMP assays efficacy (%) Rat Hepatocytes” value [2] of the same compound?
Its value is -83±12%.

And the IC50 [3]?
Its IC50 is 11 ± 1.78 µM.

And the IC50 [4]?
The IC50 was 13.8 µM.

And the Emax [4]?
Its Emax is 115%.

What does the source list for CCOC(=O)C1(c2ccccc2)CCN(CCC(C#N)(c2ccccc2)c2ccccc2)CC1 [Diphenoxylate hydrochloride]?
MMP assays efficacy (%) qHTS-HepG2 [1]: -56±8%; IC50 [1, 6]: 20.7 ± 1.19 µM; MMP assays efficacy (%) Rat Hepatocytes [2]: -81±36%; IC50 [3]: 19.4 µM; IC50 [4]: 17.3 µM; Emax [4]: 71%

With O=P(OCC(Br)CBr)(OCC(Br)CBr)OCC(Br)CBr (stereo not drawn) [Tris(2,3-dibromopropyl) phosphate] as the compound, how does the “MMP assays efficacy (%) qHTS-HepG2” value [1] read?
The value was -99±7%.

And the IC50 [1, 5]?
Its IC50 is 45.8 ± 8.72 µM.

And the “MMP assays efficacy (%) Rat Hepatocytes” value [2]?
Its value is -91±11%.

What about the IC50 [3] of the same compound?
Its IC50 is 44 ± 10.7 µM.

What about the IC50 [4] of the same compound?
Its IC50 is 50.1 µM.

And the Emax [4]?
Its Emax is 110%.

Which “MMP assays efficacy (%) qHTS-HepG2” value [1] does the source give for Oc1c(Cl)cc(Cl)cc1Sc1cc(Cl)cc(Cl)c1O [Sodium bithionolate] here?
The value was -123±11%.

What about the IC50 [1, 5] of the same compound?
The IC50 was 0.91 ± 0.78 µM.

What about the “MMP assays efficacy (%) Rat Hepatocytes” value [2] of the same compound?
Its value is “inactive”.

What about the “MMP assays IC50 (µM) Rat Hepatocytes” value [3] of the same compound?
The value was “inactive”.

And the IC50 [4]?
The IC50 was 0.89 µM.

And the Emax [4]?
Its Emax is 116%.

With C#C[C@]1(O)CC[C@H]2[C@@H]3CCc4cc(O)ccc4[C@H]3CC[C@@]21C [Compound 17alpha-Ethinylestradiol] as the compound, how does the “MMP assays efficacy (%) qHTS-HepG2” value [1] read?
Its value is -95±9%.

And the IC50 [1, 6]?
The IC50 was 19.1 ± 5.99 µM.

And the “MMP assays efficacy (%) Rat Hepatocytes” value [2]?
Its value is -42±1%.

And the IC50 [3]?
The IC50 was 18.4 ± 1.5 µM.

And the IC50 [4]?
The IC50 was 15.5 µM.

And the Emax [4]?
The Emax was 107%.

For O=C1OC(c2ccc(O)cc2)(c2ccc(O)cc2)c2ccccc21 [Phenolphthalein], which “MMP assays efficacy (%) qHTS-HepG2” value [1] is on record?
The value was -103±24%.

What about the IC50 [1, 5] of the same compound?
Its IC50 is 42.8 ± 2.74 µM.

What about the “MMP assays efficacy (%) Rat Hepatocytes” value [2] of the same compound?
The value was -98±24%.

And the IC50 [3]?
The IC50 was 39.5 ± 16.9 µM.

And the IC50 [4]?
The IC50 was 25.1 µM.

And the Emax [4]?
Its Emax is 132%.

Which “MMP assays efficacy (%) qHTS-HepG2” value [1] does the source give for O=S(=O)(Oc1ccc(Cl)cc1)c1ccc(Cl)cc1 [Chlorfenson] here?
Its value is -94±17%.

What about the IC50 [1, 6] of the same compound?
Its IC50 is 38.8 ± 25.4 µM.

What about the “MMP assays efficacy (%) Rat Hepatocytes” value [2] of the same compound?
Its value is -62±24%.

And the IC50 [3]?
The IC50 was 23.7 ± 17.2 µM.

What about the IC50 [4] of the same compound?
Its IC50 is 44.7 µM.

What about the Emax [4] of the same compound?
Its Emax is 88%.

For CCOc1nc2cccc(C(=O)OC(C)OC(=O)OC3CCCCC3)c2n1Cc1ccc(-c2ccccc2-c2nnn[nH]2)cc1 (stereo not drawn) [Candesartan cilexetil], which “MMP assays efficacy (%) qHTS-HepG2” value [1] is on record?
The value was -124±13%.

What about the IC50 [1, 6] of the same compound?
The IC50 was 15.9 ± 4.62 µM.

What about the “MMP assays efficacy (%) Rat Hepatocytes” value [2] of the same compound?
The value was “inactive”.

What about the “MMP assays IC50 (µM) Rat Hepatocytes” value [3] of the same compound?
Its value is “inactive”.

What about the IC50 [4] of the same compound?
The IC50 was 11.2 µM.

And the Emax [4]?
Its Emax is 101%.

With CC(=O)c1cc2c(cc1C)C(C)(C)C(C)CC2(C)C (stereo not drawn) as the compound, how does the “MMP assays efficacy (%) qHTS-HepG2” value [1] read?
The value was -74±22%.

And the IC50 [1, 6]?
The IC50 was 30.6 ± 18.9 µM.

What about the “MMP assays efficacy (%) Rat Hepatocytes” value [2] of the same compound?
Its value is “inactive”.

What about the “MMP assays IC50 (µM) Rat Hepatocytes” value [3] of the same compound?
Its value is “inactive”.

And the IC50 [4]?
Its IC50 is 28.2 µM.

And the Emax [4]?
Its Emax is 73%.

Which results are given for O=[N+]([O-])c1ccc(O/N=C/c2cc(Br)c(O)c(Br)c2)c([N+](=O)[O-])c1 [Bromofenoxim]?
MMP assays efficacy (%) qHTS-HepG2 [1]: -108±7%; IC50 [1, 6]: 1.08 ± 0.25 µM; MMP assays efficacy (%) Rat Hepatocytes [2]: -114±9%; IC50 [3]: 2.18 ± 0.86 µM; IC50 [4]: 3.98 µM; Emax [4]: 100%

Which results are given for Oc1cc(Cl)c(Cl)c(Cl)c1Cl [2,3,4,5-Tetrachlorophenol]?
MMP assays efficacy (%) qHTS-HepG2 [1]: -99±11%; IC50 [1, 6]: 4.93 ± 2.04 µM; MMP assays efficacy (%) Rat Hepatocytes [2]: -76±25%; IC50 [3]: 11.6 ± 5.42 µM; IC50 [4]: 7.94 µM; Emax [4]: 121%

Which results are given for Oc1ccc2ccccc2c1 [Compound 2-Naphthalenol]?
MMP assays efficacy (%) qHTS-HepG2 [1]: -107±7%; IC50 [1, 6]: 50.1 ± 16 µM; MMP assays efficacy (%) Rat Hepatocytes [2]: -56±17%; IC50 [3]: 42.2 ± 19.8 µM; IC50 [4]: 35.5 µM; Emax [4]: 81%

For O=c1[nH]sc2ccccc12 [1,2-Benzisothiazolin-3-one], which “MMP assays efficacy (%) qHTS-HepG2” value [1] is on record?
Its value is -81±19%.

What about the IC50 [1, 6] of the same compound?
Its IC50 is 38.6 ± 13.7 µM.

And the “MMP assays efficacy (%) Rat Hepatocytes” value [2]?
The value was “inactive”.

And the “MMP assays IC50 (µM) Rat Hepatocytes” value [3]?
Its value is “inactive”.

What about the IC50 [4] of the same compound?
The IC50 was 17.8 µM.

And the Emax [4]?
Its Emax is 118%.

With O=S(=O)(c1ccc(Cl)cc1)c1cc(Cl)c(Cl)cc1Cl [Tetradifon] as the compound, how does the “MMP assays efficacy (%) qHTS-HepG2” value [1] read?
The value was -98±2%.

What about the IC50 [1, 5] of the same compound?
Its IC50 is 15.3 ± 7.43 µM.

And the “MMP assays efficacy (%) Rat Hepatocytes” value [2]?
Its value is -77±25%.

And the IC50 [3]?
Its IC50 is 12.1 ± 6.57 µM.

What about the IC50 [4] of the same compound?
The IC50 was 17.8 µM.

What about the Emax [4] of the same compound?
Its Emax is 96%.

Which “MMP assays efficacy (%) qHTS-HepG2” value [1] does the source give for COc1cc(NS(C)(=O)=O)ccc1Nc1c2ccccc2nc2ccccc12 [Amsacrine hydrochloride] here?
The value was -75±13%.

And the IC50 [1, 6]?
The IC50 was 10.3 ± 2.45 µM.

What about the “MMP assays efficacy (%) Rat Hepatocytes” value [2] of the same compound?
The value was -110±40%.

What about the IC50 [3] of the same compound?
The IC50 was 37.6 ± 3.06 µM.

What about the IC50 [4] of the same compound?
Its IC50 is 56.2 µM.

What about the Emax [4] of the same compound?
The Emax was 110%.

What does the source list for CC(C)=CCC1=C(O)C(=O)c2ccccc2C1=O [Lapachol]?
MMP assays efficacy (%) qHTS-HepG2 [1]: -117±24%; IC50 [1, 5]: 26.1 ± 1.7 µM; MMP assays efficacy (%) Rat Hepatocytes [2]: inactive; MMP assays IC50 (µM) Rat Hepatocytes [3]: inactive; IC50 [4]: 31.6 µM; Emax [4]: 113%

Which results are given for O=C(N/N=C/c1ccc([N+](=O)[O-])o1)c1ccc(O)cc1 [Nifuroxazide]?
MMP assays efficacy (%) qHTS-HepG2 [1]: -89±9%; IC50 [1, 5]: 1.57 ± 0.3 µM; MMP assays efficacy (%) Rat Hepatocytes [2]: -91±23%; IC50 [3]: 6.71 ± 1.54 µM; IC50 [4]: 2.34 µM; Emax [4]: 113%
